Calls of active or inactive are those of the source.
Tests used:
[1] = target: T1, G-protein coupled receptor 35 (Homo sapiens, UniProt Q9HC97); assay: SAR analysis of Agonists of the GPR35 Receptor using an Image-Based Assay - Set 4. [Related pubchem assays (depositor defined):AID2013, AID2026]; type: functional
[2] = target: T2, Cannabinoid receptor 1 (Homo sapiens, UniProt P21554); assay: SAR analysis of agonists of the Cannabinoid Receptor 1 using an Image-Based Assay - Set 4. [Related pubchem assays (depositor defined):AID2013, AID2026]; type: functional
T2 sequence (P21554 whole entry): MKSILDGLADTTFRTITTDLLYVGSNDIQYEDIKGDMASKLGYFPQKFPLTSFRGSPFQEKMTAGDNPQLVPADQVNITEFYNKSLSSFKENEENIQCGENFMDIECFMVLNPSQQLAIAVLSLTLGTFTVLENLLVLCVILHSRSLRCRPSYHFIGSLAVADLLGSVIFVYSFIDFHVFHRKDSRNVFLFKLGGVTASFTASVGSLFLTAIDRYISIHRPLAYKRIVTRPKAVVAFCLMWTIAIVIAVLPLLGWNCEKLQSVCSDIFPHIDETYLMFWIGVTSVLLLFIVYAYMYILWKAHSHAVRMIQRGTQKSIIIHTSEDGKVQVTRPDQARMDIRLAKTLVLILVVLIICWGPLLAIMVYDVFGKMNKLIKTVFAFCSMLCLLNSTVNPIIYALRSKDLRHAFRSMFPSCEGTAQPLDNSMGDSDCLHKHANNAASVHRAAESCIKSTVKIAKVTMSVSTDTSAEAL

[3] = target: T1, G-protein coupled receptor 35; assay: SAR analysis of Antagonists of the GPR35 Receptor using an Image-Based Assay - Set 6. [Related pubchem assays (depositor defined):AID2013, AID2026]; type: functional
[4] = target: T2, Cannabinoid receptor 1; assay: SAR analysis of antagonists of the Cannabinoid Receptor 1 using an Image-Based Assay - Set 4. [Related pubchem assays (depositor defined):AID2013, AID2026]; type: functional
[5] = target: T3, G-protein coupled receptor 55 (Homo sapiens, UniProt Q9Y2T6); assay: SAR Analysis of Selective Antagonists of GPR55 using an Image-Based Assay - Set 4. [Related pubchem assays (depositor defined):AID2013, AID2026]; type: functional
T3 sequence (Q9Y2T6 whole entry): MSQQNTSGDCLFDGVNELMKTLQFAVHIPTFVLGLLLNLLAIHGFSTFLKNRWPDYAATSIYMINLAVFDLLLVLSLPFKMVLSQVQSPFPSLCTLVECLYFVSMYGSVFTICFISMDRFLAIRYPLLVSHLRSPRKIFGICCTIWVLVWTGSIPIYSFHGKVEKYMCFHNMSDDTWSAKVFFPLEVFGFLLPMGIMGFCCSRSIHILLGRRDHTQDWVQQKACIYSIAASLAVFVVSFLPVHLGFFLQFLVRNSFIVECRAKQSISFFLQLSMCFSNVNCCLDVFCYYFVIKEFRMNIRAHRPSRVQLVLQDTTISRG

[6] = target: T4, Cannabinoid receptor 2 (Homo sapiens, UniProt P34972); assay: SAR analysis of antagonists of the Cannabinoid Receptor 2 using an Image-Based Assay - Set 3. [Related pubchem assays (depositor defined):AID2013, AID2026]; type: functional
T4 sequence (P34972 whole entry): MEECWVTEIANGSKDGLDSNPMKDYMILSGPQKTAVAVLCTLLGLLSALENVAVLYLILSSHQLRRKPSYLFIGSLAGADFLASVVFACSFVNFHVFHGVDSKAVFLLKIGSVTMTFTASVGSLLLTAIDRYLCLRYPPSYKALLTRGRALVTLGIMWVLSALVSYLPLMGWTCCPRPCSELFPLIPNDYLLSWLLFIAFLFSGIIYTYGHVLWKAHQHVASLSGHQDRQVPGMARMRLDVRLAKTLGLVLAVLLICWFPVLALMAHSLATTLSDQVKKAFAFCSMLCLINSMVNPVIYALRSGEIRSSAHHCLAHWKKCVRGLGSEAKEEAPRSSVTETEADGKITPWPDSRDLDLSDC

[7] = target: T4, Cannabinoid receptor 2; assay: SAR analysis of agonists of the Cannabinoid Receptor 2 using an Image-Based Assay - Set 3. [Related pubchem assays (depositor defined):AID2013, AID2026]; type: functional
[8] = Luminescence Cell-Based Dose Response HTS to Identify Inhibitors of Luciferase Translation or Activity in H4-C Neuroglioblastoma Cells. [Related pubchem assays: 1813 (Primary HTS), 1827 (Project Summary)]; type: functional
[9] = Luminescence Cell-Based Dose Response HTS to Identify Activators of Luciferase Translation or Activity in H4-C Neuroglioblastoma Cells. [Related pubchem assays: 1829 (Project Summary), 1814 (Primary HTS)]; type: functional
[10] = luciferase reporter signal suppression in cells – H4 neuroglioma cells, luminescence, dose response (AID 1990); type: functional, cell-based
[11] = luciferase reporter signal reduction – luminescence, H4-C neuroglioblastoma cells, dose response (AID 2458); type: functional, cell-based;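 note: H4 neuroglioblastoma cells stably carrying a luciferase reporter gene fusion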
[12] = Luminescence Cell-Based Dose Retest to Confirm Activators of 5'UTR Stem-Loop Driven Alpha-Synuclein mRNA Translation in H4 Neuroglioblastoma Cells. [Related pubchem assays (depositor defined):AID1813, AID1829]; type: functional
[13] = Luminescence Cell-Based Dose Response HTS to Identify Activators of 5'UTR Stem-Loop Driven Prion Protein mRNA Translation in H4-C Neuroglioblastoma Cells. [Related pubchem assays: 1829 (Project Summary), 1814 (Primary HTS)]; type: functional
[14] = Luminescence Cell-Based Dose HTS Response to Identify Inhibitors of 5'UTR Stem-Loop Driven Prion Protein mRNA Translation in H4-C Neuroglioblastoma Cells. [Related pubchem assays (depositor defined):AID1814, AID1827]; type: functional
[15] = tested on: BJ; assay: BJ-TERT fibroblast viability loss – cell-based, RAS-independent, luminescence, dose response (AID 1933); type: functional; conditions: Homo sapiens
[16] = cells; type: functional, cell-based
[17] = Luminescence Cell-Based Dose Response HTS to Identify Inhibitors of 5'UTR Stem-Loop Driven Prion Protein mRNA Translation in H4 Neuroglioblastoma Cells. [Related pubchem assays: 1827 (Project Summary), 1813 (Primary HTS)]; type: functional
[18] = alpha-synuclein stem-loop luciferase translation blockers – H4 neuroglioma cells, luminescence, confirmation (AID 1988); type: functional, cell-based
[19] = tested on: BJ; assay: cells; type: functional, cell-based; conditions: Homo sapiens
[20] = Luminescence Cell-Based Dose Confirmation HTS to Identify Inhibitors of 5'UTR Stem-Loop Driven Alpha-Synuclein mRNA Translation in H4 Neuroglioblastoma Cells. [Related pubchem assays: 1827 (Project Summary), 1813 (Primary HTS)]; type: functional
[21] = tested on: BJ; assay: BJ-TERT-LT-ST fibroblast viability loss – cell-based, RAS-independent, luminescence, dose response (AID 1935); type: functional; conditions: Homo sapiens;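 note: BJ fibroblasts immortalized with TERT plus LT and ST oncogenes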
[22] = DRD fibroblast viability loss – cell-based, non-viral oncogenic, luminescence, dose response (AID 1934); type: functional; conditions: Homo sapiens
[23] = alpha-synuclein stem-loop translation blockers – luminescence, H4 neuroglioblastoma cells, dose confirmation, confirmation (AID 2454); type: functional, cell-based;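 note: H4 neuroglioblastoma cells carrying an alpha-synuclein 5'UTR luciferase reporter; potency for inhibition of the luciferase signal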
[24] = tested on: BJ; assay: growth inhibition of engineered Ras-driven BJ cells – cell-based, alamar blue fluorescence, cherrypicked samples, dose response (AID 2631); type: functional; conditions: Homo sapiens;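 note: confirmatory dose-response assay in RAS-dependent BJ fibroblasts engineered with TERT, LT and ST, with cytotoxicity read by fluorescence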
[25] = toxicity toward HEK293 cells – cell-based, dry powder samples, cytotoxicity control, dose response (AID 720567); type: functional
[26] = target: DNA damage-inducible transcript 3 protein (Mus musculus, UniProt P35639); type: functional, Cricetulus griseus
DNA damage-inducible transcript 3 protein, sequence (P35639 whole entry): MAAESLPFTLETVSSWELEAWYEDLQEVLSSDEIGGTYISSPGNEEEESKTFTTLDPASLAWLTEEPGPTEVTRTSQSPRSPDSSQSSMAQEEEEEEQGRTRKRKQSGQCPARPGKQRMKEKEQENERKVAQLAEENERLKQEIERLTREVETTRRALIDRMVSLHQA

[27] = target: T5, X-box-binding protein 1 (Homo sapiens, UniProt P17861); type: functional, Cricetulus griseus;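 note: confirmatory dose-response counter-screen serving a CHOP assay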
T5 sequence (P17861 whole entry): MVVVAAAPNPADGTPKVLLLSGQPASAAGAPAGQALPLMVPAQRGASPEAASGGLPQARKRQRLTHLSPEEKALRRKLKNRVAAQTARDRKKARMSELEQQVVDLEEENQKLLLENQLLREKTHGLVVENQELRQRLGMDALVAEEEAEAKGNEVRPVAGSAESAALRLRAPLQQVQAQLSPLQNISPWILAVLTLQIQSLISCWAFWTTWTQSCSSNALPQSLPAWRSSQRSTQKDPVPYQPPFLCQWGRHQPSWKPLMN

[28] = target: Ion channel NompC (Danio rerio, UniProt Q7T1G6); assay: Dose response cell-based high-throughput screening assay for agonists of the transient receptor potential channel N1 (TRPN1). [Related pubchem assays (depositor defined):AID1424, AID1448]; type: functional
Ion channel NompC, sequence (Q7T1G6 whole entry): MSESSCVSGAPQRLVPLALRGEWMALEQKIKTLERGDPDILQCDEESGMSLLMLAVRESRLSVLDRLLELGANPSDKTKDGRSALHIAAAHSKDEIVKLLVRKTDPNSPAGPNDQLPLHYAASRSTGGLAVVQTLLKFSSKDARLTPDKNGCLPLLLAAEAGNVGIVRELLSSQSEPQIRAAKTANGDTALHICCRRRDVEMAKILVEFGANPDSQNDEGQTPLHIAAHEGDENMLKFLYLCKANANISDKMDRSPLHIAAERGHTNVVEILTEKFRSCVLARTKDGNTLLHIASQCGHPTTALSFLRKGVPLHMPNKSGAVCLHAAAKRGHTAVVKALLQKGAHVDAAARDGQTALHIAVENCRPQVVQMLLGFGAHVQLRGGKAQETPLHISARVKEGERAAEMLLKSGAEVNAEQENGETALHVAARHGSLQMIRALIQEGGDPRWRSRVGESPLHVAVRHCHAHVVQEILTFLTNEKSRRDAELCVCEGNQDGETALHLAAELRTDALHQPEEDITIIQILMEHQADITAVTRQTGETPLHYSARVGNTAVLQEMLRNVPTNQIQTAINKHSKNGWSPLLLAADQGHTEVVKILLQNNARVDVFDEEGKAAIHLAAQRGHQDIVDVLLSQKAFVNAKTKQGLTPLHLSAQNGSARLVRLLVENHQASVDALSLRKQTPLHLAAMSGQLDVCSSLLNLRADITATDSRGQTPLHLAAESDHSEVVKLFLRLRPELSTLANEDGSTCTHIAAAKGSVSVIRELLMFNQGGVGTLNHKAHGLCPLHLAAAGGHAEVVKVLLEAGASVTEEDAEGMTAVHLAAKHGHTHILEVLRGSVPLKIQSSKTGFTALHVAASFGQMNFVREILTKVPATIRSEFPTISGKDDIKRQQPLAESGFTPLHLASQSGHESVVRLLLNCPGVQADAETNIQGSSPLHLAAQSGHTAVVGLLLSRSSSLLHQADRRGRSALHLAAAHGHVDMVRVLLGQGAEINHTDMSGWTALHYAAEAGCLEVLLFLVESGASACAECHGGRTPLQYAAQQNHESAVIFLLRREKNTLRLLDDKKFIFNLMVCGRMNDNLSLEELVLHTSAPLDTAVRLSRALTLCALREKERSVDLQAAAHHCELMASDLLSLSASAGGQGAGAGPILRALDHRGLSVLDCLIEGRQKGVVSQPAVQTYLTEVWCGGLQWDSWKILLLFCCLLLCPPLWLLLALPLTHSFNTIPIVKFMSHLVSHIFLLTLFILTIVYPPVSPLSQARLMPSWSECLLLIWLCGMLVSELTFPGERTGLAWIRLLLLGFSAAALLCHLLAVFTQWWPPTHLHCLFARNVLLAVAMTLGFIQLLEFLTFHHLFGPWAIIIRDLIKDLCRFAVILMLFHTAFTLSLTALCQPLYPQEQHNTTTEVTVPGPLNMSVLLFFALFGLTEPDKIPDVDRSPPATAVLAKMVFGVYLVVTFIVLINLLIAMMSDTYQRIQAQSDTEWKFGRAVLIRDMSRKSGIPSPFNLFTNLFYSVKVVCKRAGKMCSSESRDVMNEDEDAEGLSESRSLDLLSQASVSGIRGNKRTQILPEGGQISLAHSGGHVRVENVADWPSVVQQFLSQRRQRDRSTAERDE

[29] = target: Mucolipin-3 (Homo sapiens, UniProt Q8TDD5); assay: Fluorescence counterscreen assay for […] agonists: dose response cell-based high-throughput screening assay to identify agonists of the transient receptor potential channel ML3 (TRPML3). [Related pubchem assays: 1424, 1448 ]; type: functional
Mucolipin-3, sequence (Q8TDD5 whole entry): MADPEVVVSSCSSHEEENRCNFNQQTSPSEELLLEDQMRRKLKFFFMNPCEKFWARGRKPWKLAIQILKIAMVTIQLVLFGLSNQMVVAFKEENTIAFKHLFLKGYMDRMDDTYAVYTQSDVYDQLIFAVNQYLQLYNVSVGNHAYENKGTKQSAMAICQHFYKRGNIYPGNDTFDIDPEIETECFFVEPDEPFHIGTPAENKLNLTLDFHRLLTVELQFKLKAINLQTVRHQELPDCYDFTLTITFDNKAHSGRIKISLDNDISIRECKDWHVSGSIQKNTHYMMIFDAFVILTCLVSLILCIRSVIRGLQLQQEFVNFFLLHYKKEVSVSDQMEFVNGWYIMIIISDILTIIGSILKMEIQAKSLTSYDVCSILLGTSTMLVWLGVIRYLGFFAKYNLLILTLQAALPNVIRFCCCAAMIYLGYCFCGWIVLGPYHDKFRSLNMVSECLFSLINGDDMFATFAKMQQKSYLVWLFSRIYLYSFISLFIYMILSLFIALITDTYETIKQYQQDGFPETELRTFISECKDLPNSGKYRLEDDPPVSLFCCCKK

[30] = target: T4, Cannabinoid receptor 2; assay: SAR analysis of antagonists of the Cannabinoid Receptor 2 using an Image-Based Assay - Set 2. [Related pubchem assays (depositor defined):AID1961, AID1965]; type: functional
[31] = target: T3, G-protein coupled receptor 55; assay: SAR analysis of selective Agonists of GPR55 using an Image-Based Assay - Set 2. [Related pubchem assays (depositor defined):AID1961, AID1965]; type: functional
[32] = target: T4, Cannabinoid receptor 2; assay: SAR analysis of agonists of the Cannabinoid Receptor 2 using an Image-Based Assay - Set 2. [Related pubchem assays (depositor defined):AID1961, AID1965]; type: functional
[33] = target: T1, G-protein coupled receptor 35; assay: SAR analysis of Agonists of the GPR35 Receptor using an Image-Based Assay - Set 3. [Related pubchem assays (depositor defined):AID1961, AID1965]; type: functional
[34] = target: T2, Cannabinoid receptor 1; assay: SAR analysis of antagonists of the Cannabinoid Receptor 1 using an Image-Based Assay - Set 3. [Related pubchem assays (depositor defined):AID1961, AID1965]; type: functional
[35] = target: T2, Cannabinoid receptor 1; assay: SAR analysis of agonists of the Cannabinoid Receptor 1 using an Image-Based Assay - Set 3. [Related pubchem assays (depositor defined):AID1961, AID1965]; type: functional
[36] = target: T1, G-protein coupled receptor 35; assay: SAR analysis of Antagonists of the GPR35 Receptor using an Image-Based Assay - Set 4. [Related pubchem assays (depositor defined):[…]]; type: functional

T1 sequence (Q9HC97 whole entry): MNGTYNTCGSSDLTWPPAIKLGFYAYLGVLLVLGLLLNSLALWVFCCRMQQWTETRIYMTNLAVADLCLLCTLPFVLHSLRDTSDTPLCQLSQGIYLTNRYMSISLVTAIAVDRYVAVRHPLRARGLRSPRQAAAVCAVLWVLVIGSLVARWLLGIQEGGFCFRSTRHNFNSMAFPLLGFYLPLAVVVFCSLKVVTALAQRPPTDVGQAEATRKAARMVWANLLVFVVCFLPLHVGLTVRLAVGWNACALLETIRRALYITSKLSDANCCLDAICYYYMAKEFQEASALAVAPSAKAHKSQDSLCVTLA

COc1ccc(-c2cc(C(=O)Nc3ccc(S(=O)(=O)Nc4ncccn4)cc3)c3ccccc3n2)cc1
inactive: EC50 [1] > 32 µM | EC50 [2] > 32 µM | IC50 [3] > 32 µM | IC50 [4] 24.5 µM | IC50 [5] > 32 µM | IC50 [6] > 32 µM | EC50 [7] > 32 µM

COc1cccc(N2CCN(C(=O)c3ccc(C[S+]([O-])c4ccc(C)cc4)o3)CC2)c1 (stereo unspecified)
inconclusive: EC50 [9] 0.703 µM | EC50 [12] 36.4 µM | EC50 [13] 0.186 µM | EC50 [19] 0.479 µM
active: EC50 [8] 0.703 µM | EC50 [10] 5.76 µM | EC50 [11] 0.93 µM | EC50 [14] 0.186 µM | EC50 [15] 0.873 µM | EC50 [16] 1.57 µM | EC50 [17] 12.6 µM | EC50 [18] < 0.1 µM | EC50 [20] 36.4 µM | EC50 [21] 0.651 µM | EC50 [22] 0.637 µM | EC50 [23] 1.43 µM | EC50 [24] < 0.104 µM
inactive: AC50 [25] > 30 µM

CCOC(=O)c1c(-c2ccccc2)oc2ccc(O)c(CN3CCOCC3)c12
10 µM: Absolute IC50 (CHOP) [26]
< 10 µM: Absolute IC50 (XBP1) [27]

COC(=O)c1ccc(NC(=O)Nc2cccc(F)c2)cc1
> 29.9 µM (not active): EC50 [29]
inactive: EC50 [28] > 29.9 µM

CCC1CCc2sc(C(=O)Nc3cc(S(=O)(=O)N4CCOCC4)ccc3OC)cc2C1 (stereo unspecified)
inactive: IC50 [30] > 32 µM | EC50 [32] > 32 µM | EC50 [33] > 32 µM | IC50 [34] > 32 µM | EC50 [35] > 32 µM | IC50 [36] > 32 µM
active: EC50 [31] 0.409 µM

— ChEMBL document CHEMBL1201862, “PubChem BioAssay data set” (2004)
